Reference: patent US20100048549A1, “Peptidomimetics selective for the somatostatin receptor subtypes 1 and/or 4” (priority 2005, published 2010)
Structures can show the parent of a compound that is named as a salt.

What was measured:
[1] = target: T1, human somatostatin receptor subtype sst4 (Homo sapiens, UniProt P31391); assay: Competition binding with 125I-LTT-SRIF-28, CHO cell membranes, sst4; settings: bound only; read-out: Ki values for the sst4
T1 construct: expressed in transfected cells; host or cells: CHO cells (membranes)
T1 sequence (P31391 whole entry): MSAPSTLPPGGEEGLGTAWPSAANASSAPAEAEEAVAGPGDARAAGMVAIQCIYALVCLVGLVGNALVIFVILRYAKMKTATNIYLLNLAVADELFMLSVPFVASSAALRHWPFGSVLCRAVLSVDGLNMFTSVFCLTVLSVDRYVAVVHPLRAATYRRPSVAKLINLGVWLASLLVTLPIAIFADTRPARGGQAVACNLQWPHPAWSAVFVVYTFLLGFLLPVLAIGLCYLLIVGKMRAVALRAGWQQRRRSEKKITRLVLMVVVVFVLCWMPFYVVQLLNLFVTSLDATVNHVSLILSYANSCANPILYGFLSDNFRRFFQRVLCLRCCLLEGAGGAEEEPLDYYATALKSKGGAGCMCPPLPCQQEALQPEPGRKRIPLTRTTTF
Method: (§1) The affinity of the compounds of the invention for the five human somatostatin receptor subtypes (sst1, sst2, sst3, sst4, and sst5) was determined in competition binding assays with (^125I-Tyr)-[Leu^8, DTrp^22]-Somatostatin-28 (^125I-LTT-SRIF-28). The biological material for these experiments consisted of membranes from Chinese hamster ovary (CHO) cells stably transfected with one of the five human somatostatin receptor subtypes. Membranes (3-20 μg of total protein per sample) and trace amount of ^125I-LTT-SRIF-28 were incubated in 10 mM Hepes, 1 mM EDTA, 5 mM MgCl2, 5 mg/ml of BSA and 30 μg/ml bacitracin, pH 7.6, with six concentrations of the compounds. Each concentration was run in duplicate. Nonspecific binding was defined by 1 μM somatostatin-14 (SRIF-14) and corresponded to 5-25% of total binding. After 60 min at room temperature, incubations were terminated by rapid vacuum filtration through GF/B glass fiber filter mats (presoaked at 4° C. in 200 ml of 10 mM Hepes, 1 mM EDTA, 5 mM MgCl2, pH 7.6) and three 5 ml washes with ice-cold wash buffer (20 mM TRIS, 1 mM EDTA, 5 mM MgCl2, pH 7.4). The filters were then dried, impregnated with scintillate and their radioactivity was measured by scintillation counting. The analysis of the experiments was carried out by nonlinear least square curve fitting. Affinity constants (Ki) were calculated from the IC50 values according to the Cheng-Prusoff's equation (Cheng and Prusoff, 1973). Experiments were repeated a minimum of three times.

[2] = target: T2, human somatostatin receptor subtype sst1 (Homo sapiens, UniProt P30872); assay: Competition binding with 125I-LTT-SRIF-28, CHO cell membranes, sst1; settings: bound only; read-out: Ki values for the sst1
T2 construct: expressed in transfected cells; host or cells: CHO cells (membranes)
T2 sequence (P30872 whole entry): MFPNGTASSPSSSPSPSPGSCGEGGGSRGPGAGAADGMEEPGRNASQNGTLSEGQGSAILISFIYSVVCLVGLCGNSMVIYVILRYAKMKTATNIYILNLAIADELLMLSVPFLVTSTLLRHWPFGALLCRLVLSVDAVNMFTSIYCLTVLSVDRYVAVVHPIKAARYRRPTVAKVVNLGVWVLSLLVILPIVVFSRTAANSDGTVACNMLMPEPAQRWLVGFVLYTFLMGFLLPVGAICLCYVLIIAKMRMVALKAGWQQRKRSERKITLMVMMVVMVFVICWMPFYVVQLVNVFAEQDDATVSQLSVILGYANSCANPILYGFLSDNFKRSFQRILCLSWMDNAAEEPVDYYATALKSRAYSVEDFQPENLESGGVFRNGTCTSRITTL
Method: as §1

SMILES	Ki [1]	Ki [2]
Cc1ccc(S(=O)(=O)N[C@@H](CCCN)CSCc2ccccc2)c2ccccc12 [compound 1, (S)-4-methylnaphthalene-1-sulfonic acid (4-amino-1-benzylsulfanylmethylbutyl)amide]	< 300 nM	
Cc1ccc(S(=O)(=O)N[C@@H](CCN)COCc2ccccc2)c2ccccc12 [compound 3, (S)-4-methylnaphthalene-1-sulfonic acid (3-amino-1-benzyl-oxymethylpropyl)amide]	< 300 nM	
Cc1ccc(S(=O)(=O)N[C@@H](CCNC(=N)N)COCc2ccccc2)c2ccccc12 [compound 4, (S)-4-methylnaphthalene-1-sulfonic acid (1-benzyloxymethyl-3-guanidinylpropyl)amide]	< 300 nM	< 300 nM
Cc1ccc(COC[C@H](CCCN)NS(=O)(=O)c2ccc(C)c3ccccc23)cc1 [compound 12, (S)-4-methylnaphthalene-1-sulfonic acid [4-amino-1-(4-methylbenzyloxymethyl)butyl]amide]	< 300 nM	
Cc1ccc(S(=O)(=O)N[C@@H](CCCN)COc2ccccc2)c2ccccc12 [compound 13, (S)-4-methylnaphthalene-1-sulfonic acid (4-amino-1-phenoxymethylbutyl)amide]	< 300 nM	< 300 nM
CCC(CC)NCCC[C@@H](COc1ccccc1)NS(=O)(=O)c1ccc(C)c2ccccc12 [compound 14, (S)-4-methylnaphthalene-1-sulfonic acid [4-(1-ethylpropylamino)-1-phenoxymethylbutyl]amide]		< 300 nM
Cc1ccc(S(=O)(=O)N[C@@H](CCCN)COCc2ccccc2)c2ccccc12 [compound 15, (S)-4-methyl-naphthalene-1-sulfonic acid (4-amino-1-benzyloxymethylbutyl)amide]	< 300 nM	< 300 nM
Cc1ccc(S(=O)(=O)N[C@@H](CCCNC(C)C)CNC2CCCc3ccccc32)c2ccccc12 (stereo partly drawn) [compound 17, (S)-4-methylnaphthalene-1-sulfonic acid {4-isopropylamino-1-[(1,2,3,4-tetrahydronaphthalen-1-ylamino)methyl]butyl}amide]		< 300 nM
Cc1ccc(S(=O)(=O)N[C@H](COCc2ccccc2)C(=O)NCCN)c2ccccc12 [compound 24, (R)-4-methylnaphthalene-1-sulfonic acid [1-(2-aminoethylcarbamoyl)-2-benzyloxyethyl]amide]	< 300 nM	
Cc1ccc(S(=O)(=O)N[C@@H](CNCCN(C)C)COCc2ccccc2)c2ccccc12 [compound 27, (S)-4-methylnaphthalene-1-sulfonic acid {2-benzyloxy-1-[(2-dimethylaminoethylamino)methyl]ethyl}amide]	< 300 nM	< 300 nM
Cc1ccc(S(=O)(=O)N[C@H](CSCc2ccccc2)C(=O)NCCN)c2ccccc12 [compound 31, (S)-4-methylnaphthalene-1-sulfonic acid [1-(2-aminoethylcarbamoyl)-2-benzylsulfanylethyl]amide]	< 300 nM	
Cc1ccc(S(=O)(=O)NC(COCc2ccccc2)CC2CCCN2)c2ccccc12 (stereo not shown) [compound 32, 4-methylnaphthalene-1-sulfonic acid (1-benzyloxymethyl-2-pyrrolidin-2-ylethyl)amide]	< 300 nM	< 300 nM
Cc1ccc(S(=O)(=O)NC(CNCc2ccccc2)C2CCNCC2)c2ccccc12 (stereo not shown) [compound 34, 4-methylnaphthalene-1-sulfonic acid (2-benzylamino-1-piperidin-4-ylethyl)amide]	< 300 nM	
Cc1ccc(S(=O)(=O)N[C@@H](CCCN)CNCc2ccccc2)c2ccccc12 [compound 35, (S)-4-methylnaphthalene-1-sulfonic acid [4-amino-1-(benzylaminomethyl)butyl]amide]	< 300 nM	
Cc1ccc(S(=O)(=O)N[C@@H](CCCNC(C)C)CSCc2ccccc2)c2ccccc12 [compound 61, (S)-4-methylnaphthalene-1-sulfonic acid (1-benzylsulfanylmethyl-4-isopropylaminobutyl)amide]		< 300 nM
Cc1ccc(S(=O)(=O)N[C@@H](CCCNC(C)C)COCc2ccccc2)c2ccccc12 [compound 62, (S)-4-methylnaphthalene-1-sulfonic acid (1-benzyloxymethyl-4-isopropylaminobutyl)amide]	< 300 nM	< 300 nM
Cc1ccc(S(=O)(=O)N[C@@H](CCCN)CSc2ccccc2)c2ccccc12 [compound 67, (S)-4-methylnaphthalene-1-sulfonic acid (4-amino-1-phenylsulfanylmethylbutyl)amide]	< 300 nM	

SMILES	Ki [1]	Ki [2]
Cc1ccc(S(=O)(=O)N[C@@H](C(=O)NCCN)[C@H](C)OCc2ccccc2)c2ccccc12 [compound 70, (R)-4-methylnaphthalene-1-sulfonic acid [2-benzyloxy-2-(S)methyl-1-(aminoethylcarbamoyl)-ethyl]amide]	< 300 nM	
Cc1ccc(S(=O)(=O)N[C@@H](C(=O)NCCNC(C)C)[C@H](C)OCc2ccccc2)c2ccccc12 [compound 71, (R)-4-methylnaphthalene-1-sulfonic acid [2-benzyloxy-2-(S)methyl-1-(2-isopropylaminoethylcarbamoyl)-ethyl]amide]		< 300 nM
CCOC[C@H](CCCN)NS(=O)(=O)c1ccc(C)c2ccccc12 [compound 76, (S)-4-methylnaphthalene-1-sulfonic acid (4-amino-1-ethoxymethylbutyl)amide]	< 300 nM	
Cc1ccc(S(=O)(=O)NC(CCCN)CNC2CCCCC2)c2ccccc12 (stereo not shown) [compound 77, 4-methylnaphthalene-1-sulfonic acid (4-amino-1-cyclohexylaminomethyl-butyl)-amide formic acid salt]	< 300 nM	
NCCC[C@@H](COCc1ccccc1)NS(=O)(=O)c1ccc(F)c2ccccc12 [compound 78, (S)-4-fluoronaphthalene-1-sulfonic acid (4-amino-1-benzyloxymethylbutyl)amide]	< 300 nM	
Cc1ccc(S(=O)(=O)N[C@@H](CCCN)COCC(C)C)c2ccccc12 [compound 80, (S)-4-methylnaphthalene-1-sulfonic acid (4-amino-1-isobutoxymethylbutyl)amide]	< 300 nM	
NCCC[C@@H](COCc1ccccc1)NS(=O)(=O)c1cccc2ccccc12 [compound 83, (S)-naphthalene-1-sulfonic acid (4-amino-1-benzyloxymethylbutyl)amide]	< 300 nM	
Cc1ccc(S(=O)(=O)N[C@H](COc2ccccc2)Cc2c[nH]cn2)c2ccccc12 [compound 84, (S)-4-methylnaphthalene-1-sulfonic acid [2-(1H-imidazol-4-yl)-1-phenoxymethylethyl]amide]	< 300 nM	
Cc1ccc(S(=O)(=O)N[C@@H](CCCN)CN(C)Cc2ccccc2)c2ccccc12 [compound 85, (S)-4-methylnaphthalene-1-sulfonic acid {4-amino-1-[(benzylmethylamino)methyl]butyl}amide]	< 300 nM	
Cc1ccc(S(=O)(=O)N[C@@H](CCCN)COc2ccsc2)c2ccccc12 [compound 87, (S)-4-methylnaphthalene-1-sulfonic acid [4-amino-1-(thiophen-3-yloxymethyl)-butyl]-amide]	< 300 nM	
Cc1ccc(S(=O)(=O)N[C@@H](CCCN)COC(C)c2ccccc2)c2ccccc12 (stereo partly drawn) [compound 88, (S)-4-methyl-naphthalene-1-sulfonic acid [4-amino-1-(1-phenyl-ethoxy methyl)-butyl]-amide formic acid salt]	< 300 nM	
Cc1ccc(S(=O)(=O)N[C@H](CNCc2ccccc2)Cc2c[nH]cn2)c2ccccc12 [compound 93, (S)-4-methylnaphthalene-1-sulfonic acid [1-(benzylaminomethyl)-2-(1H-imidazol-4-yl)ethyl]amide]	< 300 nM	
Cc1ccc(S(=O)(=O)N[C@H](CNc2ccccc2)Cc2c[nH]cn2)c2ccccc12 [compound 94, (S)-4-methylnaphthalene-1-sulfonic acid [2-(1H-imidazol-4-yl)-1-phenylaminomethylethyl]amide]	< 300 nM	
Cc1ccc(S(=O)(=O)N[C@@H](CCN)COc2ccccc2)c2ccccc12 [compound 100, (S)-4-Methylnaphthalene-1-sulfonic acid (3-amino-1-phenoxymethylpropyl)amide]	< 300 nM	
Cc1ccc(S(=O)(=O)N[C@@H](CCCN)COCc2ccc(F)cc2)c2ccccc12 [compound 101, (S)-4-methylnaphthalene-1-sulfonic acid [4-amino-1-(4-fluorobenzyloxymethyl)butyl]amide]	< 300 nM	
Cc1ccc(S(=O)(=O)N[C@@H](CCCN)COCc2c(F)c(F)c(F)c(F)c2F)c2ccccc12 [compound 102, (S)-4-methylnaphthalene-1-sulfonic acid (4-amino-1-pentafluorophenylmethoxymethylbutyl)amide]	< 300 nM	
Cc1ccc(S(=O)(=O)N[C@@H](CCCNC(C)C)COc2ccc3cnccc3c2)c2ccccc12 [compound 105, (S)-4-methylnaphthalene-1-sulfonic acid [4-isopropylamino-1-(isoquinolin-6-yloxymethyl)butyl]amide]		< 300 nM
